Measured values published in patent US10421751B2, “Dihydro-2H-benzo[b][1,4]oxazine sulfonamide and related compounds for use as agonists of RORγ and the treatment of disease” (Lycera Corporation, priority 2015, dated 2019).

What was measured:
Gal4-RORγ-LBD = biological target: T1, Gal4-RORγ-LBD (Homo sapiens, UniProt P51449); test: Gal4-RORγ Luciferase Reporter Assay in HEK-293T Cells; type: cell-based; details: for EC50: HEK-293 cells, in presence of 2 μM ursolic acid, overnight incubation, read-out: Ga14-RORγ Assay EC50; for Ga14-RORγ Assay Max Response: upper plateau of 4-parameter fit, luciferase signal in the absence of ursolic acid or test compound defined at 100
T1 construct: expressed in transfected cells; pcDNA3.1neo plasmid, co-transfected with pGL4.31 Gal4-luciferase reporter
T1 sequence (P51449 269-508 limits assumed): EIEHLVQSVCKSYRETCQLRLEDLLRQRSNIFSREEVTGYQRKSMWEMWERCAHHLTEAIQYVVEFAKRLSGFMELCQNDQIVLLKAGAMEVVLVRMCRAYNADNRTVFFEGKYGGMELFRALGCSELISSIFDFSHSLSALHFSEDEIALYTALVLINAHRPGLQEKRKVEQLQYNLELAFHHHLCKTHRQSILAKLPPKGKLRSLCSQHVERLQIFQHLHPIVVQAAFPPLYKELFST
Experimental: In the following protocol, HEK-293 cells were transfected with a construct comprising the Gal4 DNA binding domain fused to the ligand binding domain of RORγ (Gal4-RORγ-LBD) in a pcDNA3.1neo plasmid, and also with a reporter construct comprising pGL4.31 Gal4-luciferase (Promega). Control cells were prepared similarly using empty pcDNA3.1neo and pGL4.31 vectors.
Trans-IT reagent (Mirus, 60 μL) at room temperature was added drop wise to OptiMEM (Invitrogen, 1.5 ml). This reagent mixture was mixed by inversion then incubated for 5 to 30 minutes at room temperature. It then was added to a solution of both expression vectors (5 μg each), mixed, and incubated at room temperature for about 20 minutes. HEK-293 cells were harvested from incubation flasks by removing the media, treating with TrypLE Express (Invitrogen), and incubating until the cells detached from the bottom of the flask (approximately 2-5 minutes). 10 Million cells were collected by centrifugation and re-suspended in 10 mL of Dulbecco's Modified Eagle Medium, High Glucose (DMEM, Invitrogen) containing 10% Fetal Bovine Serum and 100 IU each of penicillin and streptomycin. The re-suspended cells and the transfection mixture were added to a T75 flask, mixed and incubated overnight at 37° C. and 5% CO2.
The cells were harvested as described above, counted, and centrifuged to obtain the desired number of cells, then re-suspended in complete growth media at 0.75×10^6 cells/mL. The RORγ antagonist, ursolic acid, was added to the cells at a final concentration of 2 μM. Cells were plated at 20 μL of cell suspension/well (10,000-15,000 cells/well) in white tissue culture treated 384 well plates. Test compounds were dissolved at 10 mM in DMSO then diluted into complete growth medium to 5× the final intended test concentration. These drug stock solutions, 5 μL/well were added to the tissue culture plate. The final DMSO concentration was 0.2%. The plates were briefly centrifuged then incubated overnight at 37° C. and 5% CO2. To conduct the assay, the tissue culture plates were allowed to equilibrate to room temperature and One-Glo luciferase reagent (Promega, 25 μL/well) was added. The plates were briefly centrifuged then incubated at room temperature for 10 minutes. The luciferase intensity was read on an Envision plate reader (Perkin Elmer). RORγ activity was determined relative to controls and plotted as a function of test compound concentration using PRISM (GraphPad) to determine a 50% effective concentration (EC50). The luciferase signal in the absence of ursolic acid or test compound is defined at 100. The Max Response is the upper plateau in the signal as determined by line-fit using a 4-parameter logistic model in PRISM (GraphPad).

RORγ-LBD = biological target: T2, RORγ-LBD (Homo sapiens, UniProt P51449); test: RORγ-Ligand Binding Domain (LBD) TR-FRET Assay; type: biochemical; details: for EC50: in presence of 2 μM RORγ antagonist ursolic acid, SRC1 coactivator peptide; for TR-FRET Assay Max Response: upper plateau of 4-parameter fit, signal in the absence of ursolic acid or test compound set as 100
T2 construct: made in house; host or cells: SF9 cells, baculovirus expression system; used as diluted lysate
T2 sequence (P51449 269-508 limits assumed): T1 sequence (P51449 269-508 limits assumed)
Experimental: HIS-tagged RORγ-LBD protein was expressed in SF9 cells using a baculovirus expression system. The lysate was diluted in assay buffer (50 mM Tris pH 7.0, 50 mM KCl, 1 mM EDTA, 0.1 mM DTT, 0.01% BSA) to obtain RORγ-LBD final concentration of ˜3 nM in a 384-well assay plate (need to titrate for each batch of protein).
A stock of biotinylated-LXXLL peptide from coactivator SRC1 (Biotin-[…]) was prepared in assay buffer and added to each well (200 nM final concentration). A solution of Europium tagged anti-HIS antibody (0.6 nM final concentration) and APC-conjugated streptavidin (30 nM final concentration) were also added to each well. RORγ antagonist ursolic acid was also included at a final concentration of 2 μM. Compounds were diluted in DMSO and further diluted in assay buffer with a final DMSO concentration at 1%.
The final assay mixture was incubated overnight at 4° C. or 2 hours at room temperature, and the fluorescence signal was measured on an Envision plate reader: (Excitation filter=340 nm; APC emission=665 nm; Europium emission=615 nm; dichroic mirror=D400/D630; delay time=100 μs, integration time=200 μs). 50% Effective concentration (EC50) values for test compounds were calculated from the quotient of the fluorescence signal at 665 nm divided by the fluorescence signal at 615 nm. The quotient of the fluorescence signals in the absence of ursolic acid or test compound is set as 100. Max Response is defined as the upper plateau in the signal as determined by line-fit using a 4-parameter logistic model in PRISM (GraphPad).

Row | Structure (SMILES) | EC50 (Gal4-RORγ-LBD) [nM] | Ga14-RORγ Assay Max Response (Gal4-RORγ-LBD) | EC50 (RORγ-LBD) [nM] | TR-FRET Assay Max Response (RORγ-LBD)
1 | C/C(=C\c1ccc2c(c1)N(S(=O)(=O)c1cccc(C(F)(F)F)c1)C[C@H](CCc1n[nH]c(=O)o1)O2)c1c(F)cccc1Cl | 100 to 5000 | ** (a value in the range of greater than 90 to 150) | < 100 | ** (a value in the range of greater than 90 to 150)
2 | C/C(=C\c1ccc2c(c1)N(S(=O)(=O)c1cccc(C(F)(F)F)c1)C[C@H](Oc1noc(=O)[nH]1)C2)c1c(F)cccc1Cl | 100 to 5000 | ** (a value in the range of greater than 90 to 150) | 100 to 5000 | *** (a value in the range of greater than 150 to 200)
3 | CCOc1ncc(C(F)(F)F)cc1S(=O)(=O)N1C[C@H](CCc2n[nH]c(=O)o2)Oc2ccc(/C=C(\C)c3c(F)cccc3Cl)cc21 | 100 to 5000 | ** (a value in the range of greater than 90 to 150) | < 100 | **** (a value greater than 200)
4 | O=c1[nH]nc(CC[C@H]2CN(S(=O)(=O)c3cccc(OC(F)F)c3)c3cc(/C=C/c4c(Cl)cccc4C(F)(F)F)ccc3O2)o1 | 100 to 5000 | ** (a value in the range of greater than 90 to 150) | < 100 | **** (a value greater than 200)
5 | CCOc1nn(CC)cc1S(=O)(=O)N1C[C@H](CCc2n[nH]c(=O)o2)Oc2ccc(/C=C/c3c(Cl)cccc3C(F)(F)F)cc21 | 100 to 5000 | ** (a value in the range of greater than 90 to 150) | < 100 | **** (a value greater than 200)
6 | C/C(=C\c1ccc2c(c1)N(S(=O)(=O)c1cccc(C(F)(F)F)c1)C[C@H](CCCc1nn[nH]n1)O2)c1c(F)cccc1Cl | 100 to 5000 | ** (a value in the range of greater than 90 to 150) | 100 to 5000 | *** (a value in the range of greater than 150 to 200)
7 | CCOc1nn(CC)cc1S(=O)(=O)N1C[C@H](CCc2n[nH]c(=O)o2)Oc2ccc(/C=C(\C)c3c(F)cccc3Cl)cc21 | 100 to 5000 | *** (a value in the range of greater than 150 to 200) | < 100 | *** (a value in the range of greater than 150 to 200)
